Reference: article PMC6277555, “Short Symmetric-End Antimicrobial Peptides Centered on β-Turn Amino Acids Unit Improve Selectivity and Stability” (Frontiers in Microbiology, 2018)
Converted amounts (≈) assume the structure as drawn. No end group written: not given here.

What was measured:
[1] = tested on: E. coli ATCC25922; format: cell-based, Escherichia coli; conditions: for MIC / MIC, CaCl2 / MIC, Control / MIC, FeCl3 / MIC, Heat (100°C) / MIC, KCl / MIC, MgCl2 / MIC, NH4Cl / MIC, NaCl / MIC, ZnCl2: ATCC25922; for MIC, pH 4.0: ATCC25922, pH 4; for MIC, pH 6.0: ATCC25922, pH 6; for MIC, pH 8.0: ATCC25922, pH 8; for MIC, pH 10.0: ATCC25922, pH 10
Procedure: (§1) The minimal inhibitory concentration (MIC) was determined according to a previously described method ([Chou et al., 2016]). Bacteria were cultured overnight to mid-log phase in MHB at 37°C and then diluted to give final concentrations ranging from 2 × 10^5 to 7 × 10^5 CFU/mL. Then, 50 μL of serial twofold dilutions of the peptides were added to each well in 96-well microtiter plates with a mixed solution containing 0.01% acetic acid and 0.2% bovine serum albumin (BSA, Sigma) was used to dissolve and dilute the peptides. Then, equal amounts of bacterial aliquots were incubated with the above peptide solution for 18-24 h at 37°C. The experiment was performed in triplicate using three replicates for each peptide and each bacterium. The broth was employed as a negative control and the broth with microbial cells was used as a positive control. The lowest concentration of peptide that prevented visible turbidity was defined as the MIC. The condition sensitivity of peptides was tested in an MIC assay in different environments, including salt sensitivity, thermal sensitivity and different pH values similar to our previous method ([[…] et al., 2008]; [Ma et al., 2012]). […] For the heat resistance experiments, the peptides were incubated at 100°C for 30 min and cooled on ice for 10 min. […] The determination methods for these MIC assays were same as described above. To test the effects of serum on the antimicrobial activities of the peptides, human serum was dissolved in MHB to reach final concentrations of 25 and 50%. The determination methods for these MIC assays were same as described above.

[2] = tested on: Gram-negative and Gram-positive bacterial strains; test: Geometric mean of MICs and therapeutic index; format: cell-based; conditions: for GM (geometric mean of the MIC values): all ten tested strains; for Therapeutic index: from MHC and GM
Procedure: (§2) The hemolytic activity of the peptides was detected using a previously described modified method ([Wang et al., 2015]). One milliliter of fresh hRBCs was obtained from a healthy donor (Zhihua Wang, Harbin, China) in a polycarbonate tube containing heparin. The collected hRBCs were centrifuged at 1000 × g for 5 min at 4°C and resuspended in PBS buffer (pH 7.2). The hRBCs were washed three times and then incubated with an equal volume of the respective peptide dissolved in PBS for 1 h at 37°C. Then, the hRBC suspension was placed into a 96-well microtiter plater with 50 μL of tested peptide solution at different concentrations and the mixture was incubated for 1 h at 37°C. […] The minimum hemolytic concentrations (MHCs) were defined as the peptide concentrations resulting in 5% hemolysis.
(§3) The minimal inhibitory concentration (MIC) was determined according to a previously described method ([Chou et al., 2016]). Bacteria were cultured overnight to mid-log phase in MHB at 37°C and then diluted to give final concentrations ranging from 2 × 10^5 to 7 × 10^5 CFU/mL. Then, 50 μL of serial twofold dilutions of the peptides were added to each well in 96-well microtiter plates with a mixed solution containing 0.01% acetic acid and 0.2% bovine serum albumin (BSA, Sigma) was used to dissolve and dilute the peptides. Then, equal amounts of bacterial aliquots were incubated with the above peptide solution for 18–24 h at 37°C. The experiment was performed in triplicate using three replicates for each peptide and each bacterium. The broth was employed as a negative control and the broth with microbial cells was used as a positive control. The lowest concentration of peptide that prevented visible turbidity was defined as the MIC.

[3] = tested on: S. faecalis ATCC 29212; format: cell-based, Streptococcus faecalis
Procedure: as §3

[4] = tested on: S. typhimurium ATCC 7731; format: cell-based, Salmonella entericaserovar Typhimurium
Procedure: as §3

[5] = tested on: B. pyocyaneum ATCC 27853; format: cell-based, Bacterium pyocyaneum
Procedure: as §3

[6] = tested on: B. subtilis CMCC 63501; format: cell-based, Bacillus subtilis
Procedure: as §3

[7] = tested on: S. pullorum C79-13; format: cell-based, Salmonella pullorum
Procedure: as §3

[8] = tested on: S. aureus ATCC 29213; format: cell-based, Staphylococcus aureus; conditions: for MIC / MIC, CaCl2 / MIC, Control / MIC, FeCl3 / MIC, Heat (100°C) / MIC, KCl / MIC, MgCl2 / MIC, NH4Cl / MIC, NaCl / MIC, ZnCl2: ATCC 29213; for MIC, pH 4.0: ATCC 29213, pH 4; for MIC, pH 6.0: ATCC 29213, pH 6; for MIC, pH 8.0: ATCC 29213, pH 8; for MIC, pH 10.0: ATCC 29213, pH 10
Procedure: as §1

[9] = tested on: hRBCs; test: Hemolytic activity; format: cell-based, human; conditions: peptide concentration resulting in 5% hemolysis of hRBCs; PBS, 1 h, 37°C
Procedure: as §2

[10] = tested on: S. aureus ATCC 43300; format: cell-based, Staphylococcus aureus
Procedure: as §3

[11] = tested on: E. coli UB1005; format: cell-based, Escherichia coli
Procedure: as §3

[12] = tested on: S. epidermidis ATCC 12228; format: cell-based, Staphylococcus epidermidis
Procedure: as §3

[13] = RP-HPLC retention time as measure of relative hydrophobicity; format: physicochemical; conditions: analytical RP-HPLC; hydrophobicity increases with retention time
Procedure: These peptides' […] identified via matrix-assisted laser desorption/ionization time-of-flight mass spectrometry (MALDI-TOF MS, Linear Scientific Inc., United States), using α-cyano-4-hydroxycinnamic acid as the matrix. […] Quantitative peptides were dissolved in deionized water and stored at -20°C before the assessments. The rest of the peptides were stored as powders at -20°C to prevent peptide degradation. The structures and molecular weights of the peptides were verified by MALDI-TOF MS. […] The relative hydrophobicity of the symmetric-end peptides was reliably reflected by their different HPLC retention times, and the hydrophobicity increased with increasing HPLC retention times ([Lee et al., 2014]; [Zhu et al., 2014]). The HPLC retention times for […]

[14] = tested on: S. aureus; test: Time killing assay; format: cell-based, Staphylococcus aureus; conditions: mean of three independent assays
Procedure: (§4) The ability of peptides to kill bacterial cells was further investigated by analyzing the fraction of cell survival upon peptide treatment at various exposure times according to a previously described method ([Wiradharma et al., 2012]). Briefly, E. coli and S. aureus were treated at MIC and 2 × MIC concentrations with peptides. At various time periods (0, 5, 10, 30, 60, 90, 120, and 150 min), microbial suspensions were diluted at three different dilutions and plated on MHA plates. Microbial colonies were formed and counted after 24 h of incubation. The results were presented as the mean data from three independent assays.

[15] = tested on: E. coli; test: Time killing assay; format: cell-based, Escherichia coli; conditions: mean of three independent assays
Procedure: as §4

IHFKWRRWKFHI-NH2 [Qna]
MIC [1]: 32 µM
GM (geometric mean of the MIC values) [2]: 34.3 µM
Therapeutic index [2]: 7.5
MIC [3]: 64 µM
MIC [4]: 32 µM
MIC [5]: 32 µM
MIC [6]: 64 µM
MIC [7]: 32 µM
MIC [8]: 32 µM
MHC (minimum hemolytic concentration) [9]: >128 µM
MIC [10]: 32 µM
MIC [11]: 16 µM
MIC [12]: 32 µM

CC(C)C[C@H](NC(=O)[C@H](CCCNC(=N)N)NC(=O)CNC(=O)CNC(=O)[C@@H](N)CCCNC(=N)N)C(=O)N[C@H]1CSSC[C@@H](C(=O)N[C@H](C(=O)NCC(=O)N[C@@H](CCCNC(=N)N)C(N)=O)C(C)C)NC(=O)[C@H](C(C)C)NC(=O)[C@@H]2CSSC[C@H](NC(=O)[C@H](Cc3ccc(O)cc3)NC1=O)C(=O)N[C@@H](CCCNC(=N)N)C(=O)N[C@@H](CCCNC(=N)N)C(=O)N[C@@H](CCCNC(=N)N)C(=O)N[C@@H](Cc1ccccc1)C(=O)N2 [PG-1, reference compound]
MIC [1]: 2 µM (≈ 4.31 µg/mL)
MIC, CaCl2 [1]: 4 µM (≈ 8.62 µg/mL)
MIC, Control [1]: 2 µM (≈ 4.31 µg/mL)
MIC, FeCl3 [1]: 4 µM (≈ 8.62 µg/mL)
MIC, Heat (100°C) [1]: 8 µM (≈ 17.2 µg/mL)
MIC, KCl [1]: 2 µM (≈ 4.31 µg/mL)
MIC, MgCl2 [1]: 2 µM (≈ 4.31 µg/mL)
MIC, NH4Cl [1]: 2 µM (≈ 4.31 µg/mL)
MIC, NaCl [1]: 4 µM (≈ 8.62 µg/mL)
MIC, ZnCl2 [1]: 2 µM (≈ 4.31 µg/mL)
MIC, pH 4.0 [1]: 4 μM
MIC, pH 6.0 [1]: 4 μM
MIC, pH 8.0 [1]: 4 μM
MIC, pH 10.0 [1]: 4 μM
Retained time (HPLC retention time) [13]: 12.56 min
MIC [3]: 16 µM (≈ 34.5 µg/mL)
MIC [4]: 8 µM (≈ 17.2 µg/mL)
MIC [5]: 16 µM (≈ 34.5 µg/mL)
MIC [6]: 8 µM (≈ 17.2 µg/mL)
MIC [7]: 2 µM (≈ 4.31 µg/mL)
Time to kill S. aureus ([14]; peptide at 1 × MIC): 5 min
Time to kill S. aureus ([14]; peptide at 2 × MIC): 10 min
MIC [8]: 8 µM (≈ 17.2 µg/mL)
MIC, CaCl2 [8]: 16 µM (≈ 34.5 µg/mL)
MIC, Control [8]: 8 µM (≈ 17.2 µg/mL)
MIC, FeCl3 [8]: 8 µM (≈ 17.2 µg/mL)
MIC, Heat (100°C) [8]: 16 µM (≈ 34.5 µg/mL)
MIC, KCl [8]: 8 µM (≈ 17.2 µg/mL)
MIC, MgCl2 [8]: 8 µM (≈ 17.2 µg/mL)
MIC, NH4Cl [8]: 8 µM (≈ 17.2 µg/mL)
MIC, NaCl [8]: 32 µM (≈ 69 µg/mL)
MIC, ZnCl2 [8]: 8 µM (≈ 17.2 µg/mL)
MIC, pH 4.0 [8]: 8 μM
MIC, pH 6.0 [8]: 8 μM
MIC, pH 8.0 [8]: 8 μM
MIC, pH 10.0 [8]: 16 μM
MIC [10]: 2 µM (≈ 4.31 µg/mL)
MIC [11]: 2 µM (≈ 4.31 µg/mL)
Time to kill E. coli ([15]; peptide at 1 × MIC): 10 min
Time to kill E. coli ([15]; peptide at 2 × MIC): 10 min
MIC [12]: 16 µM (≈ 34.5 µg/mL)

IHKFWRPGRWFKHI-NH2 [PP]
MIC [1]: 8 µM
MIC, CaCl2 [1]: 4 µM
MIC, Control [1]: 8 µM
MIC, FeCl3 [1]: 4 µM
MIC, Heat (100°C) [1]: 8 µM
MIC, KCl [1]: 4 µM
MIC, MgCl2 [1]: 2 µM
MIC, NH4Cl [1]: 2 µM
MIC, NaCl [1]: 8 µM
MIC, ZnCl2 [1]: 2 µM
MIC, pH 4.0 [1]: 8 μM
MIC, pH 6.0 [1]: 8 μM
MIC, pH 8.0 [1]: 16 μM
MIC, pH 10.0 [1]: 8 μM
GM (geometric mean of the MIC values) [2]: 8.0 µM
Therapeutic index [2]: 32.0
MIC [3]: 8 µM
MIC [4]: 8 µM
MIC [5]: 4 µM
MIC [6]: 8 µM
MIC [7]: 4 µM
MIC [8]: 16 µM
MIC, CaCl2 [8]: 32 µM
MIC, Control [8]: 16 µM
MIC, FeCl3 [8]: 8 µM
MIC, Heat (100°C) [8]: 16 µM
MIC, KCl [8]: 16 µM
MIC, MgCl2 [8]: 16 µM
MIC, NH4Cl [8]: 8 µM
MIC, NaCl [8]: 128 µM
MIC, ZnCl2 [8]: 4 µM
MIC, pH 4.0 [8]: 16 μM
MIC, pH 6.0 [8]: 16 μM
MIC, pH 8.0 [8]: 16 μM
MIC, pH 10.0 [8]: 16 μM
MHC (minimum hemolytic concentration) [9]: >128 µM
MIC [10]: 16 µM
MIC [11]: 4 µM
MIC [12]: 16 µM

IHKFWRRWFKHI-NH2 [Qa]
MIC [1]: 16 µM
GM (geometric mean of the MIC values) [2]: 14.9 µM
Therapeutic index [2]: 17.2
MIC [3]: 16 µM
MIC [4]: 16 µM
MIC [5]: 16 µM
MIC [6]: 32 µM
MIC [7]: 16 µM
MIC [8]: 8 µM
MHC (minimum hemolytic concentration) [9]: >128 µM
MIC [10]: 16 µM
MIC [11]: 8 µM
MIC [12]: 16 µM

IHKFWRGGRWFKHI-NH2 [GG]
MIC [1]: 8 µM
Retained time (HPLC retention time) [13]: 10.24 min
MIC [3]: 32 µM
MIC [4]: 64 µM
MIC [5]: 16 µM
MIC [6]: 16 µM
MIC [7]: 8 µM
MIC [8]: 16 µM
MIC [10]: 32 µM
MIC [11]: 8 µM
MIC [12]: 32 µM
